Assay results taken from US10722530B2, “Methods of diagnosing and treating cancer” (CASE WESTERN RESERVE UNIVERSITY, priority 2016, dated 2020).
Where two headings read alike, the source gives them in different places.

What was measured:
[1] = test system: HEC1A endometrial cancer cells; assay: Colony survival assay, shSCR and shUDG cells; format: cell-based, human; conditions: HEC1A shUDG vs shSCR
Protocol: UDG knockdown was performed via shRNA transduction with validated clone from Sigma-Aldrich. The ID of UDG shRNA clone is NM_003362.2-656s21c1. A non-targeted scramble control shRNA clone (Sigma-Aldrich) was also used. Transfection of shRNA clones was performed according to manufacturer's specifications from Lipofectamine 2000 (Invitrogen). Lentiviral particles were produced via HEK293 cells, and targeted cells were infected and selected with puromycin. The stable UDG knockdown levels were verified for q-PCR and western blot analysis.
DLD1 (200 cells/well) or HEC1A (300 cells/well) cells were plated in 6-well culture dishes and allowed to adhere for 16 h. Cells were treated with drug for 24 h, gently washed twice with 1×PBS, and incubated with fresh media for at least 10 days to allow individual colonies to form. Colonies were stained with methylene blue, and only colonies containing ≥50 cells were counted. The percentage of survival was determined relative to untreated control averaged over 3 independent experiments.

DLD1 colon cancer cells = conditions: for effect of UDG depletion on drug sensitivity: DLD1 shUDG vs shSCR
Protocol: UDG knockdown was performed via shRNA transduction with validated clone from Sigma-Aldrich. […] A non-targeted scramble control shRNA clone (Sigma-Aldrich) was also used. Transfection of shRNA clones was performed according to manufacturer's specifications from Lipofectamine 2000 (Invitrogen). Lentiviral particles were produced via HEK293 cells, and targeted cells were infected and selected with puromycin. The stable UDG knockdown levels were verified for q-PCR and western blot analysis.
Colonies were stained with methylene blue, and only colonies containing ≥50 cells were counted. The percentage of survival was determined relative to untreated control averaged over 3 independent experiments.

γH2AX foci in DLD1 cells = assay: γH2AX foci immunofluorescence staining; format: cell-based, human; conditions: 10 μM Q-VD-OPh with 50 nM 5-FdU, DLD1 shSCR or shUDG
Protocol: (§1) Cells cultured on glass coverslips were treated with 5-FdU in the presence or absence of 10 μM caspase inhibitor Q-VD-OPH (BioVision Inc). Cells were fixed in 3.7% formaldehyde for 10 minutes, blocked with PBS containing 10% FBS and 0.1% Triton X-100 for 20 minutes, washed with PBS three times, and incubated with primary anti-γH2AX antibody (Millipore, dilution: 1:150) in PBS containing 0.1% Triton X-100 at 4° C. overnight. The cells were then washed with PBS three times, incubated with secondary antibodies (Alexa Fluor 594, Life Technologies; dilution: 1:400) in PBS containing 0.1% Triton X-100 for 1 h, and washed with PBS three times. The slides were mounted with antifade solution with DAPI (Cell Signaling) and visualized on a Leica laser microscope.

[2] = test system: γH2AX foci in HEC1A cells; assay: γH2AX foci immunofluorescence staining; format: cell-based, human; conditions: 10 μM Q-VD-OPh with 50 nM 5-FdU, HEC1A shSCR or shUDG
Protocol: as §1

[3] = test system: cleaved PARP in DLD1 cells; assay: Western blot of cleaved PARP; format: cell-based, human; conditions: 10 μM Q-VD-OPh, 50 nM 5-FdU, DLD1 shSCR and shUDG
Protocol: (§2) Western blots were performed as described in Yan et al. (Clin Cancer Res. (2007) 13:1532-39). Antibodies used were as follows: Anti-UDG (FL-313) (Santa Cruz Biotechnology), anti-Cleaved PARP (Asp214)(19F4) (Cell Signaling), and anti-α-Tubulin (Calbiochem).

[4] = test system: cleaved PARP in HEC1A cells; assay: Western blot of cleaved PARP; format: cell-based, human; conditions: 10 μM Q-VD-OPh, 50 nM 5-FdU, HEC1A shSCR and shUDG
Protocol: as §2

From the text for HCT116 p53 KO cells: (§3) p53 or UDG knockdown was achieved via shRNA transduction. Lentiviral vectors LV-THM-shp53 (which also expresses a GFP reporter) or LV-Bleo-shp53 to perform p53 KD in WT HCT116 cells were obtained from Case Western Reserve University, Cleveland, Ohio Lentiviral vector targeting GFP (sh-GFP) was used as control. UDG shRNA vectors (shUDG: NM_003362.2-656s21c1, shUDG-2: NM_003362.2-758s21c1, and shUDG-3: NM_003362.2-893s21c1) were purchased from Sigma, and a scramble targeting shRNA vector (Sigma) was used as paired control. The lentiviral production and infection were performed as previously described. Cells stably infected with LV-THM-p53 were isolated by cell sorting on the basis of their GFP expression.
(§4) Cancer cells (200-300 cells/well) were seeded in 6-well culture dishes and allowed to adhere overnight. For 5-FdU, cells were treated for 24 h, then gently washed with PBS, and incubated with fresh media for at least 10 days to allow individual colonies to form. […] After 10-18 days, the plates were stained with methylene blue. Colonies containing ≥50 cells were counted. The percentage of survival was determined relative to untreated control averaged over 3 independent experiments.
From the text for HCT116 p53 WT cells: as §3, §4

Question: How did the “effect of UDG depletion on drug sensitivity” value [1] turn out when `N.N.[Cl][Pt][Cl]` [cisplatin, cis-diamminedichloroplatinum II] was run?
Answer: The value was “no further sensitivity”.

Question: What about the “effect of UDG depletion on drug sensitivity” value (DLD1 colon cancer cells) of the same molecule?
Answer: The value was “no further sensitivity”.

Question: For `O=c1[nH]cc(F)c(=O)[nH]1` [5-FU, 5-Fluorouracil], which “effect of UDG depletion on cytotoxicity” value (HCT116 p53 KO cells; HCT116 p53 KO, shUDG vs shSCR) is on record?
Answer: Its value is “only moderately sensitized”.

Question: What about the “effect of UDG depletion on cytotoxicity” value (HCT116 p53 WT cells; HCT116 p53 WT, shUDG vs shSCR) of the same molecule?
Answer: The value was “no significant survival differences”.

Question: For `CC(C)[C@H](NC(=O)c1ccc2ccccc2n1)C(=O)N[C@@H](CC(=O)O)C(=O)COc1c(F)cccc1F` [Q-VD-OPh], which “γH2AX foci, Q-VD-OPh treated vs non-treated” value (γH2AX foci in DLD1 cells) is on record?
Answer: The value was “essentially the same”.

Question: What about the “γH2AX foci, Q-VD-OPh treated vs non-treated” value [2] of the same molecule?
Answer: The value was “essentially the same”.

Question: And the “cleaved PARP induced by 5-FdU in presence of Q-VD-OPh” value [3]?
Answer: The value was “almost completely blocked”.

Question: And the “cleaved PARP induced by 5-FdU in presence of Q-VD-OPh” value [4]?
Answer: The value was “almost completely blocked”.

Question: With `Cc1cn([C@H]2C[C@H](O)[C@@H](CO)O2)c(=O)[nH]c1=O` [thymidine] as the molecule, how does the “rescue of 5-FdU cell death by thymidine given 24 h after” value (DLD1 colon cancer cells; 20 μM thymidine 24 h after 5-FdU, UDG depleted cells) read?
Answer: Its value is “barely inhibited cell death”.

Question: What about the “cell killing by 5-FdU with simultaneous thymidine” value (DLD1 colon cancer cells; 20 μM thymidine simultaneously with 0 to 200 nM 5-FdU, shSCR or shUDG) of the same molecule?
Answer: The value was “almost no killing”.

Question: What does the source list for `Nc1nc2[nH]cc(CCc3ccc(C(=O)N[C@@H](CCC(=O)O)C(=O)O)cc3)c2c(=O)[nH]1` [pemetrexed]?
Answer: effect of UDG depletion on drug sensitivity [1]: sensitization was also observed; effect of UDG depletion on cytotoxicity (HCT116 p53 KO cells): sensitized; effect of UDG depletion on cytotoxicity (HCT116 p53 WT cells): no significant survival differences; effect of UDG depletion on drug sensitivity (DLD1 colon cancer cells): sensitization was also observed

Question: Which results are given for `COc1cccc2c1C(=O)c1c(O)c3c(c(O)c1C2=O)C[C@@](O)(C(=O)CO)C[C@@H]3O[C@H]1C[C@H](N)[C@H](O)[C@H](C)O1` [doxorubicin]?
Answer: effect of UDG depletion on drug sensitivity [1]: no further sensitivity; effect of UDG depletion on drug sensitivity (DLD1 colon cancer cells): no further sensitivity
